In patent US11964990B2, “1,3,4,7-tetrahydro-2H-pyrrolo[3′,2′:5,6]pyrido[2,3-b][1,4]oxazepine bcl-2 inhibitors” (AbbVie Inc., priority 2022, dated 2024):
“And” between values parts separate entries of the source, which are not always exact repeats. Equal entries are not always repeated. Where two headings read alike, the source gives them in different places.

How the values were obtained:
RS4;11 cells = assay: Cell viability assay (CellTiter-Glo) in RS4;11 cell line; assay type: cell-based; conditions: 24 hours, 10% Human Serum, 50% decrease in cell viability
Outline: (§1)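 RS4;11 or Molt-4 cells (3000 per well) in RPMI 1640 with 10% human serum treated with compound for 24 h, 5% CO2. Viability measured by CellTiter-Glo as percent of control; EC50 from sigmoidal dose-response curves.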

Bcl-2 protein = Bcl-2 protein (Homo sapiens (Human), UniProt P10415); assay: TR-FRET binding assay, Bcl-2 (F-Bak peptide probe); conditions: Bak BH3 peptide probe, Wang's equation
Chain of Bcl-2 protein (P10415 other isoform, or with tags, fused parts or gaps): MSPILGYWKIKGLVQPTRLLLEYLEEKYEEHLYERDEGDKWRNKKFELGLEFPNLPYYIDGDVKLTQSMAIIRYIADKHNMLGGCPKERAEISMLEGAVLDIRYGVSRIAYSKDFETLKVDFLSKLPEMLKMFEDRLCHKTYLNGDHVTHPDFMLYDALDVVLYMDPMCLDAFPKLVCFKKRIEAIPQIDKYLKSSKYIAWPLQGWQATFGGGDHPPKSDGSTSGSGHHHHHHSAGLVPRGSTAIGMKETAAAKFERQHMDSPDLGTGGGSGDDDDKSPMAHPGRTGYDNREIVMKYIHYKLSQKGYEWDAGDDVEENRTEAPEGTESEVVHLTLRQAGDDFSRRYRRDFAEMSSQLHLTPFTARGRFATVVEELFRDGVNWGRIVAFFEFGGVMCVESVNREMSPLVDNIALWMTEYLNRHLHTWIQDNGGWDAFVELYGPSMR
Method: (§2) Determination of the utility of compounds having Formula (I) or Formula (II) as binders to and inhibitors of anti-apoptotic Bcl-2 proteins was performed using the Time Resolved-Fluorescence Resonance Energy Transfer (TR-FRET) Assay. Tb-anti-GST antibody was purchased from Invitrogen (Catalog No. PV4216).
A Bcl-2 human encoding sequence was cloned into a pET41A vector (Novagen). The protein was expressed with E. coli. BL21(DE3)-T1R strain in OETB autoinduction medium at 30° C. for 25 hours. The cell pellets were resuspended in lysis buffer (50 mM Tris, 140 mM NaCl, 1 mM DTT, 10% Glycerol, 2 mM MgCl2, pH 7.3) and lysed with Microfluidizer. The Bcl-2 protein in clarified cell-lysate was purified with affinity chromatography (GST and Ni-NTA). The eluate was loaded onto a Superdex 75 column and further purified with a Q Sepharose column. The protein was purified on a phenyl hydrophobic interaction column and dialyzed in the storage buffer (50 mM Tris, 50 mM NaCl, 2 mM DTT, pH 7.5) and stored at −80° C.
(§3) […] of a protein (Bcl-2 or Bcl-xL)/probe/antibody mixture pre-equilibrated for one hour in assay buffer was added to each well at final concentrations listed in Table 6 below.
(§4) The samples were then mixed on a shaker for 1 minute and equilibrated for an additional 3 hours at room temperature. For each assay plate, a probe/antibody and protein/antibody/probe mixture were included as a negative and a positive control, respectively. Fluorescence was measured on the Envision (Perkin Elmer) using a 340/35 nm excitation filter and 520/525 (F-Bak) and 495/510 nm (Tb-labeled anti-GST antibody) emission filters. Inhibition constants (Ki) were determined using Wang's equation (Wang FEBS Lett. 1995, 360, 111-114). The TR-FRET assay can be performed in the presence of varying concentrations of human serum (HS) to determine apparent half maximal inhibitory concentration (IC50) after HS protein binding.
(§5) Inhibition constants were determined using Wang's equation (Wang FEBS Lett. 1995, 360:111-4).

Molt-4 cells = assay: Cell viability counter screen assay (CellTiter-Glo) in Molt-4 cells; assay type: cell-based; conditions: 24 hours, 10% Human Serum, 50% decrease in cell viability
Outline: as §1

Bcl-xL protein = Bcl-xL protein (Homo sapiens (Human), UniProt Q07817); assay: TR-FRET binding assay, Bcl-xL (F-Bak peptide probe); conditions: Bak BH3 peptide probe, Wang's equation
Chain of Bcl-xL protein (Q07817 other isoform, or with tags, fused parts or gaps): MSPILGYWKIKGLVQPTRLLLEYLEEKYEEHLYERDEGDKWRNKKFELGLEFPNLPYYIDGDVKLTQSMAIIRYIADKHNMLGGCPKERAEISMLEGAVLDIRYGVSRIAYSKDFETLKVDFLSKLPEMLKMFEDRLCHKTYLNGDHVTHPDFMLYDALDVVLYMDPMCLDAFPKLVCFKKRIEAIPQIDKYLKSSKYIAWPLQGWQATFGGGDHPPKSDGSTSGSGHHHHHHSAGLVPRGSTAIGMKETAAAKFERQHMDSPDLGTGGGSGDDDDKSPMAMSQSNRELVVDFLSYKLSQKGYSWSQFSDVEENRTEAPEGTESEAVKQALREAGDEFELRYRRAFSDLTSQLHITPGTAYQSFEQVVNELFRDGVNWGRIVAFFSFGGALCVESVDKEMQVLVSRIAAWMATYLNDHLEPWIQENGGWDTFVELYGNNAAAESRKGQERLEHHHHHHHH
Method: as §2
A human Bcl-xL encoding sequence was cloned into a pET41A vector. The protein was expressed with E. coli. BL21(DE3)-T1R strain in OETB autoinduction medium at 30° C. for 25 hours. The cell pellets were resuspended in lysis buffer (50 mM Tris, 140 mM NaCl, 1 mM DTT, 10% Glycerol, 0.1% Triton X-100, pH 7.5) and lysed with Microfluidizer. The Bcl-xL protein in clarified cell-lysate was purified with GST affinity chromatography. The eluate was dialyzed in the storage buffer (1×PBS, 10% Glycerol, 2 mM DTT, 1 mM Sodium Azide, pH 7.4) and stored at −80° C.
as §3, §4, §5

[1] = Bioavailability study: pharmacokinetics after single intravenous or oral dose in mouse; assay type: in vivo; conditions: for Vd: read-out: VSS
Method: Studies were conducted to evaluate the pharmacokinetic profiles of Example 25 herein and Example 2 in WO 2019/040550 after single intravenous or oral dose in mouse. CD-1 mice (male) were obtained from Charles River Laboratories (Wilmington, MA).
The pharmacokinetics of Example 25 herein and Example 2 in WO 2019/040550 were evaluated following single 1 mg/kg intravenous or oral doses in mouse. Example 25 herein and Example 2 in WO 2019/040550 were prepared as a solution in DMSO: Tween 80: PEG-400: Dextrose 5% in Water (5:5:20:70, v/v) for the IV and oral dose mouse studies. The intravenous dose was administered as a slow bolus to the penile vein under isoflurane anesthesia. The oral doses were administrated by gavage. Serial blood samples were obtained […], 0.25, 0.5, 1.0, 4, 6, 9, 12, 24, 32 and 48 hours post dosing and […]. Plasma was separated by centrifugation and stored frozen (<−15° C.) until analysis.
HPLC-MS/MS bioanalytical methods were utilized for the quantitation of Example 25 herein and Example 2 in WO 2019/040550 concentration in plasma. The analytical methods used protein precipitation to extract compound from plasma. All samples were combined with a minimum two volume equivalents of organic solvent containing internal standard, vortexed and then centrifuged to pellet the proteins. Supernatants were used for subsequent analysis by liquid chromatography-tandem mass spectrometry (LC-MS/MS). Studies involving quantitative analysis employed spiked standards in plasma that were processed simultaneously with the samples.
Analytes were separated using reverse phase chromatography on a C8 or C18 column prior to analysis on an API5500™ (or higher) mass spectrometer with a Turbo-Ion Spray source. Peak areas were determined using Sciex Analyst™ 1.6 (or higher) software or Sound Analytics DiscoveryQuant™ 2.0 (or higher) software. Actual concentrations (when required) were calculated by regression analysis of the peak area ratio (parent/internal standard) of the spiked standards versus concentrations.
Peak plasma concentrations (Cm) and the time to peak plasma concentration (Tmax) were determined directly from the plasma concentration data for each animal. The compound plasma concentration data were submitted to multi-exponential curve fitting using WinNonlin software. The area under the plasma concentration-time curve from 0 to t hours after dosing (AUC0-t, t=time of the last measurable plasma concentration) was calculated using the linear trapezoidal rule. The residual area extrapolated to infinity, determined as the final measured plasma concentration (Ct) divided by the terminal plasma elimination rate constant (β), was added to the AUC0-t to produce the total area under the curve (AUC0-∞). The apparent total plasma clearance (CLp) was calculated by dividing the administered dose by the AUC0-∞. Half-life (t1/2) was determined with the following calculation: t1/2=ln (2)/elimination rate constant. The initial volume of distribution (Vc) was calculated as the dose divided by the extrapolated concentration at time=0 (C0). The volume of distribution at steady state, Vss, was estimated as a product of the total plasma clearance (CLp) and the mean residence time (MRT); the terminal-phase volume of distribution, Vβ, was derived from the total plasma clearance value (CLp) divided by the terminal plasma elimination rate constant (β). Oral bioavailability (F) was calculated as the dose-normalized AUC0-∞ (AUC0-∞/D) from the oral dose divided by the corresponding dose normalized AUC0-∞ from intravenous dosing.

[2] = male, CD-1, mouse, plasma, iv, 1 mg/kg, IV 1 mg/kg, individual animal
[3] = male, CD-1, mouse, plasma, iv, 1 mg/kg, IV 1 mg/kg, mean
[4] = male, CD-1, mouse, plasma, po, 1 mg/kg, PO 1 mg/kg, individual animal
[5] = male, CD-1, mouse, plasma, po, 1 mg/kg, PO 1 mg/kg, mean

Row | Compound | EC50 (RS4;11 cells) | Ki (Bcl-2 protein) | EC50 (Molt-4 cells) | Ki (Bcl-xL protein) | other results
1 | CC1(C)CC(c2ccc(Cl)cc2)=C2CN3CCN(c4ccc(C(=O)NS(=O)(=O)c5ccc(NCC6CCCCO6)c([N+](=O)[O-])c5)c(N5CCCOc6nc7[nH]ccc7cc65)c4)C[C@H]3COCCCO[C@@H]2C1 (stereo partly drawn) [Example 45, 4-((4aS,10aR)-14-(4-chlorophenyl)-12,12-dimethyl-1,2,4a,5,8,9,10a,11,13,15-decahydro-7H,12H-benzo[f]pyrazino[2,1-c][1,8]dioxa[4]azacycloundecin-3(4H)-yl)-2-(3,4-dihydro-2H-pyrrolo[3′,2′:5,6]pyrido[2,3-b][1,4]oxazepin-1(7H)-yl)-N-((3-nitro-4-(((tetrahydro-2H-pyran-2-yl)methyl)amino)phenyl)sulfonyl)benzamide] | 10.7 nM | 0.238 nM | > 10000 nM | 27.8 nM | –
2 | CC1(C)CC(c2ccc(Cl)cc2)=C2CN3CCN(c4ccc(C(=O)NS(=O)(=O)c5ccc(OC[C@H]6CC[C@H](N7CCOCC7)CC6)c(Cl)c5)c(N5CCCOc6nc7[nH]ccc7cc65)c4)C[C@H]3COCCCO[C@@H]2C1 [Example 38, N-((3-chloro-4-(((1r,4r)-4-morpholinocyclohexyl)methoxy)phenyl)sulfonyl)-4-((4aS,10aR)-14-(4-chlorophenyl)-12,12-dimethyl-1,2,4a,5,8,9,10a,11,13,15-decahydro-7H,12H-benzo[f]pyrazino[2,1-c][1,8]dioxa[4]azacycloundecin-3(4H)-yl)-2-(3,4-dihydro-2H-pyrrolo[3′,2′:5,6]pyrido[2,3-b][1,4]oxazepin-1(7H)-yl)benzamide] | 26 nM | 0.108 nM | 2340 nM | 5.62 nM | –
3 | CC1(C)CC(c2ccc(Cl)cc2)=C2CN3CCN(c4ccc(C(=O)NS(=O)(=O)c5cnc(OC[C@H]6CC[C@@](C)(O)CC6)c(Cl)c5)c(N5CCCOc6nc7[nH]ccc7cc65)c4)C[C@H]3COCCCO[C@@H]2C1 [Example 50, N-((5-chloro-6-(((1s,4s)-4-hydroxy-4-methylcyclohexyl)methoxy)pyridin-3-yl)sulfonyl)-4-((4aS,10aR)-14-(4-chlorophenyl)-12,12-dimethyl-1,2,4a,5,8,9,10a,11,13,15-decahydro-7H,12H-benzo[f]pyrazino[2,1-c][1,8]dioxa[4]azacycloundecin-3(4H)-yl)-2-(3,4-dihydro-2H-pyrrolo[3′,2′:5,6]pyrido[2,3-b][1,4]oxazepin-1(7H)-yl)benzamide] | 41.9 nM | 0.237 nM | > 10000 nM | 39.7 nM | –
4 | CO[C@@H]1CC[C@@H](CNc2ccc(S(=O)(=O)NC(=O)c3ccc(N4CCN5CC6=C(c7ccc(Cl)cc7)CC(C)(C)C[C@H]6OCCCOC[C@@H]5C4)cc3N3CCCOc4nc5[nH]ccc5cc43)cc2[N+](=O)[O-])OC1 [Example 25, 4-((4aS,10aR)-14-(4-chlorophenyl)-12,12-dimethyl-1,2,4a,5,8,9,10a,11,13,15-decahydro-7H,12H-benzo[f]pyrazino[2,1-c][1,8]dioxa[4]azacycloundecin-3(4H)-yl)-2-(3,4-dihydro-2H-pyrrolo[3′,2′:5,6]pyrido[2,3-b][1,4]oxazepin-1(7H)-yl)-N-((4-((((2S,5R)-5-methoxytetrahydro-2H-pyran-2-yl)methyl)amino)-3-nitrophenyl)sulfonyl)benzamide] | 1.79 nM | – | 1280 nM | – | Vβ ([1]; IV 1 mg/kg, plasma, individual animal): 0.95 L/kg and 1.0 L/kg and 0.90 L/kg; Vβ ([1]; IV 1 mg/kg, plasma, mean): 0.96 L/kg; Tmax ([1]; male, CD-1, PO 1 mg/kg, plasma, individual animal): 4 h; AUC [1, 2]: 15800 ng·h/mL; C0 [1, 2]: 4010 ng/mL; MRT [1, 2]: 12 h; half-life [1, 2]: 10 h; AUC [1, 3]: 13300 ng·h/mL; C0 [1, 3]: 4160 ng/mL; MRT [1, 3]: 11 h; clearance ([1]; male, CD-1, mouse, plasma, iv, 1 mg/kg, IV 1 mg/kg, plasma, individual animal, read-out: CLP (converted)): 1.05 mL/min/kg; Vd ([1]; male, CD-1, mouse, plasma, iv, 1 mg/kg, IV 1 mg/kg, plasma, individual animal): 0.78 L/kg; Vd ([1]; male, CD-1, mouse, plasma, iv, 1 mg/kg, IV 1 mg/kg, plasma, mean): 0.82 L/kg; AUC [1, 4]: 3580 ng·h/mL; Cmax [1, 4]: 210 ng/mL; half-life [1, 4]: 7.5 h; AUC [1, 5]: 4130 ng·h/mL; Cmax [1, 5]: 254 ng/mL; bioavailability ([1]; male, CD-1, plasma, PO 1 mg/kg vs IV 1 mg/kg, mean, read-out: F (oral bioavailability)): 31%
5 | CO[C@]1(CF)C[C@@H](CNc2ccc(S(=O)(=O)NC(=O)c3ccc(N4CCN5CC6=C(c7ccc(Cl)cc7)CC(C)(C)C[C@H]6OCCCOC[C@@H]5C4)cc3N3CCCOc4nc5[nH]ccc5cc43)cc2[N+](=O)[O-])C1 [Example 48, 4-((4aS,10aR)-14-(4-chlorophenyl)-12,12-dimethyl-1,2,4a,5,8,9,10a,11,13,15-decahydro-7H,12H-benzo[f]pyrazino[2,1-c][1,8]dioxa[4]azacycloundecin-3(4H)-yl)-2-(3,4-dihydro-2H-pyrrolo[3′,2′:5,6]pyrido[2,3-b][1,4]oxazepin-1(7H)-yl)-N-((4-((((1r,3r)-3-(fluoromethyl)-3-methoxycyclobutyl)methyl)amino)-3-nitrophenyl)sulfonyl)benzamide] | 18.1 nM | 0.206 nM | 5840 nM | 28.6 nM | –
6 | CO[C@@H]1CC[C@@H](COc2ccc(S(=O)(=O)NC(=O)c3ccc(N4CCN5CC6=C(c7ccc(Cl)cc7)CC(C)(C)C[C@H]6OCCCOC[C@@H]5C4)cc3N3CCCOc4nc5[nH]ccc5cc43)cc2[N+](=O)[O-])OC1 [Example 51] | 9.6 nM | 0.1 nM | > 10000 nM | 18.9 nM | –
